# What was measured:
# Assay type in all cases: cell-based
# KRAS G12D = target: T1, KRAS G12D (Homo sapiens, UniProt P01116, G12D); assay: KRAS G12D HiBit assay; details: AsPc-1-KRAS (G12D)-HiBit-KI cell, compound treatment for 24 hours, absolute DC50; class symbols
# T1 construct: AsPc-1-KRAS (G12D)-HiBit-KI cell (Pharmaron); host or cells: AsPc-1-KRAS (G12D)-HiBit-KI cells (HiBiT knock-in at the endogenous KRAS locus)
# How it was run: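 Cells were treated for 24 h with compounds in a 3-fold, 10-point dilution series from a 0.3 mM DMSO stock, then equilibrated 15 min at room temperature. KRAS G12D HiBiT levels were read by luminescence after lytic Nano-Glo HiBiT reagent with LgBiT; inhibition calculated relative to 0.1% DMSO high control.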
# KRAS G12V = target: T2, KRAS G12V (Homo sapiens, UniProt P01116, G12V); assay: KRAS G12V HiBit assay; details: SW620-KRAS (G12V)-HiBit-KI cells, compound treatment for 24 hours
# T2 construct: SW620-KRAS (G12V)-HiBit-KI cell (Pharmaron); host or cells: SW620-KRAS (G12V)-HiBit-KI cells (HiBiT knock-in at the endogenous KRAS locus)
# How it was run: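 HiBiT-tagged KRAS G12V cells treated 24 h with compound in a 3-fold, 10-point series (0.3 mM DMSO stock); lytic HiBiT reagent with LgBiT added after 15 min room-temperature equilibration. Degradation calculated against 0.1% DMSO high control.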
# KRAS = target: T3, KRAS (Homo sapiens, UniProt P01116); assay: KRASamp MSD assay; details: KE39 (KRAS amplified) cells, treated with test compounds for 24 hr, MSD readout of KRAS degradation
# T3 construct: endogenous in cells; host or cells: KE39 (KRAS amplified) cells
# How it was run: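 KRAS-amplified KE39 cells treated with compound for 24 hr, then lysed in RIPA buffer with protease/phosphatase inhibitors. KRAS protein measured by MSD sandwich immunoassay against a recombinant WT KRAS standard curve; DC50 derived from curve fitting of degradation.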
# T3 sequence (P01116 1-188 isoform P01116-2): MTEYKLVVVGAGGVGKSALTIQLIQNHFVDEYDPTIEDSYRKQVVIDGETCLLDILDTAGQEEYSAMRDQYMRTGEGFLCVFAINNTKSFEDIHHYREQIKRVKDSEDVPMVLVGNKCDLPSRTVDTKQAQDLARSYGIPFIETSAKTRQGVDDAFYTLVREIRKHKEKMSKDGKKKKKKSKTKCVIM
# T2 sequence (P01116 1-188 isoform P01116-2 G12V): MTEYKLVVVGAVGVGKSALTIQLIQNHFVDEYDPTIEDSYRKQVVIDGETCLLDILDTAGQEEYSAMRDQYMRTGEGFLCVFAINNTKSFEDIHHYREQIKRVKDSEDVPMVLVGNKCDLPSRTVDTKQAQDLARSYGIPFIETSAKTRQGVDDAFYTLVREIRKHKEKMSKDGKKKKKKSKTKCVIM
# T1 sequence (P01116 1-188 isoform P01116-2 G12D): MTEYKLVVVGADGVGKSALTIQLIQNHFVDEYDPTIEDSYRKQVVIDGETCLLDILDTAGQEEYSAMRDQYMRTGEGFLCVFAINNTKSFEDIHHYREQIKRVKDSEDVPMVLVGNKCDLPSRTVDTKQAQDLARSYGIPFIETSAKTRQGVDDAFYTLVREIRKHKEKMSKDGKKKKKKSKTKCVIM
DC50 (KRAS G12D) [nM],DC50 (KRAS G12V; class symbols) [nM],DC50 (KRAS) [nM],DC50 (KRAS G12V; numeric bounds) [nM],SMILES
< 100,< 10,< 1,–,"CCc1c(F)ccc2cc(O)cc(-c3cc4nc(OC[C@@]56CCCN5[C@H](COC(=O)N5CCC(CN7CCC(c8ccc9c(c8)n(C)c(=O)n9C8CCC(=O)NC8=O)CC7)CC5)CC6)nc(N5CCC[C@@](C)(O)C5)c4cn3)c12 (stereo partly drawn) [Compound 377, ((3S,7aS)-7a-(((7-(8-ethyl-7-fluoro-3-hydroxynaphthalen-1-yl)-4-((R)-3-hydroxy-3-methylpiperidin-1-yl)pyrido[4,3-d]pyrimidin-2-yl)oxy)methyl)hexahydro-1H-pyrrolizin-3-yl)methyl 4-((4-(1-(2,6-dioxopiperidin-3-yl)-3-methyl-2-oxo-2,3-dihydro-1H-benzo[d]imidazol-5-yl)piperidin-1-yl)methyl)piperidine-1-carboxylate]"
< 100,< 10,< 1,–,"CCc1cccc2cc(O)cc(-c3cc4nc(OC[C@@]56CCCN5[C@H](COC(=O)N5CCC(CN7CCC(c8ccc9c(c8)n(C)c(=O)n9C8CCC(=O)NC8=O)CC7)CC5)CC6)nc(N5CCC[C@@](C)(O)C5)c4cn3)c12 (stereo partly drawn) [Compound 378, ((3S,7aS)-7a-(((7-(8-ethyl-3-hydroxynaphthalen-1-yl)-4-((R)-3-hydroxy-3-methylpiperidin-1-yl)pyrido[4,3-d]pyrimidin-2-yl)oxy)methyl)hexahydro-1H-pyrrolizin-3-yl)methyl 4-((4-(1-(2,6-dioxopiperidin-3-yl)-3-methyl-2-oxo-2,3-dihydro-1H-benzo[d]imidazol-5-yl)piperidin-1-yl)methyl)piperidine-1-carboxylate]"
< 100,< 10,< 1,–,"CCc1c(F)ccc2cc(O)cc(-c3ncc4c(N5CCCCC5)nc(OC[C@@]56CCCN5[C@H](CN5CCC(CN7CCC(c8ccc9c(c8)n(C)c(=O)n9C8CCC(=O)NC8=O)CC7)CC5)CC6)nc4c3F)c12 (stereo partly drawn) [Compound 379, 3-(5-(1-((1-(((3S,7aS)-7a-(((7-(8-ethyl-7-fluoro-3-hydroxynaphthalen-1-yl)-8-fluoro-4-(piperidin-1-yl)pyrido[4,3-d]pyrimidin-2-yl)oxy)methyl)hexahydro-1H-pyrrolizin-3-yl)methyl)piperidin-4-yl)methyl)piperidin-4-yl)-3-methyl-2-oxo-2,3-dihydro-1H-benzo[d]imidazol-1-yl)piperidine-2,6-dione]"
< 100,–,≥ 10,> 91.5,"CCc1c(F)ccc2cc(O)cc(-c3ncc4c(N5CCC[C@@](C)(O)C5)nc(OC[C@@]56CCCN5C(CN5CCC(Cc7ccc8c(c7)n(C)c(=O)n8C7CCC(=O)NC7=O)CC5)CC6)nc4c3F)c12 (stereo partly drawn) [Compound 383, 3-(5-((1-(((7aS)-7a-(((7-(8-ethyl-7-fluoro-3-hydroxynaphthalen-1-yl)-8-fluoro-4-((R)-3-hydroxy-3-methylpiperidin-1-yl)pyrido[4,3-d]pyrimidin-2-yl)oxy)methyl)hexahydro-1H-pyrrolizin-3-yl)methyl)piperidin-4-yl)methyl)-3-methyl-2-oxo-2,3-dihydro-1H-benzo[d]imidazol-1-yl)piperidine-2,6-dione]"
< 100,10 to 100,1 to 10,–,"CCc1c(F)ccc2cc(O)cc(-c3ncc4c(N5CCC[C@@](C)(O)C5)nc(OC[C@@]56CCCN5C(CN5CCC(OCCCc7ccc8c(c7)n(C)c(=O)n8C7CCC(=O)NC7=O)CC5)CC6)nc4c3F)c12 (stereo partly drawn) [Compound 384, 3-(5-(3-((1-(((35,7aS)-7a-(((7-(8-Ethyl-7-fluoro-3-hydroxynaphthalen-1-yl)-8-fluoro-4-((R)-3-hydroxy-3-methylpiperidin-1-yl)pyrido[4,3-d]pyrimidin-2-yl)oxy)methyl)hexahydro-1H-pyrrolizin-3-yl)methyl)piperidin-4-yl)oxy)propyl)-3-methyl-2-oxo-2,3-dihydro-1H-benzo[d]imidazol-1-yl) piperidine-2,6-dione]"
< 100,< 10,≥ 10,–,"C#Cc1c(F)ccc2cc(O)cc(-c3ncc4c(N5CCC[C@@](C)(O)C5)nc(OC[C@@]56CCCN5[C@H](COC(=O)N5CCC7(CC5)CC(N5CCC(c8cccc9c8n(C)c(=O)n9C8CCC(=O)NC8=O)CC5)C7)CC6)nc4c3F)c12 (stereo partly drawn) [Compound 387, ((3S,7aS)-7a-(((7-(8-ethynyl-7-fluoro-3-hydroxynaphthalen-1-yl)-8-fluoro-4-((R)-3-hydroxy-3-methylpiperidin-1-yl)pyrido[4,3-d]pyrimidin-2-yl)oxy)methyl)hexahydro-1H-pyrrolizin-3-yl)methyl 2-(4-(1-(2,6-dioxopiperidin-3-yl)-3-methyl-2-oxo-2,3-dihydro-1H-benzo[d]imidazol-4-yl)piperidin-1-yl)-7-azaspiro[3.5]nonane-7-carboxylate]"
< 100,–,1 to 10,> 70.5,"CCc1c(F)ccc2cc(O)cc(-c3ncc4c(N5CCC[C@@](C)(O)C5)nc(OC[C@@]56CCCN5[C@@H](COC(=O)N5CCC(CN7CCC(c8ccc9c(c8)n(C)c(=O)n9C8CCC(=O)NC8=O)CC7)CC5)CC6)nc4c3F)c12 (stereo partly drawn) [Compound 389, ((3R,7aS)-7a-(((7-(8-ethyl-7-fluoro-3-hydroxynaphthalen-1-yl)-8-fluoro-4-((R)-3-hydroxy-3-methylpiperidin-1-yl)pyrido[4,3-d]pyrimidin-2-yl)oxy)methyl)hexahydro-1H-pyrrolizin-3-yl)methyl 4-((4-(1-(2,6-dioxopiperidin-3-yl)-3-methyl-2-oxo-2,3-dihydro-1H-benzo[d]imidazol-5-yl)piperidin-1-yl)methyl)piperidine-1-carboxylate]"
< 100,< 10,1 to 10,–,"CCc1c(F)ccc2cc(O)cc(-c3ncc4c(N5CCC[C@@](C)(O)C5)nc(OC[C@]56CCCN5[C@H](COC(=O)N5CCC(CN7CCC(c8ccc9c(c8)n(C)c(=O)n9C8CCC(=O)NC8=O)CC7)CC5)CC6)nc4c3F)c12 (stereo partly drawn) [Compound 390, ((3S,7aR)-7a-(((7-(8-ethyl-7-fluoro-3-hydroxynaphthalen-1-yl)-8-fluoro-4-((R)-3-hydroxy-3-methylpiperidin-1-yl)pyrido[4,3-d]pyrimidin-2-yl)oxy)methyl)hexahydro-1H-pyrrolizin-3-yl)methyl 4-((4-(1-(2,6-dioxopiperidin-3-yl)-3-methyl-2-oxo-2,3-dihydro-1H-benzo[d]imidazol-5-yl)piperidin-1-yl)methyl)piperidine-1-carboxylate]"
< 100,< 10,< 1,–,"CCc1c(F)ccc2cc(O)cc(-c3ncc4c(N5CCC[C@](C)(O)C5)nc(OC[C@]56CCCN5[C@@H](COC(=O)N5CC7CCC(C5)C7CN5CCC(c7ccc8c(c7)n(C)c(=O)n8C7CCC(=O)NC7=O)CC5)CC6)nc4c3F)c12 (stereo partly drawn) [Compound 391, ((3R,7aR)-7a-(((7-(8-ethyl-7-fluoro-3-hydroxynaphthalen-1-yl)-8-fluoro-4-((S)-3-hydroxy-3-methylpiperidin-1-yl)pyrido[4,3-d]pyrimidin-2-yl)oxy)methyl)hexahydro-1H-pyrrolizin-3-yl)methyl 8-((4-(1-(2,6-dioxopiperidin-3-yl)-3-methyl-2-oxo-2,3-dihydro-1H-benzo[d]imidazol-5-yl)piperidin-1-yl)methyl)-3-azabicyclo[3.2.1]octane-3-carboxylate]"
